Experimental data reported in patent US12162820B2 (TAIWANJ PHARMACEUTICALS CO., LTD., priority 2019, dated 2024).

Legend:
Format in all cases: biochemical
HDAC1 = biological target: T1, HDAC1 (Homo sapiens, UniProt Q13547); test: HDAC Inhibition Screening Assay (FLUOR DE LYS Fluorimetric Drug Discovery Kit), HDAC1; details: for inhibition at 2 µM: 2 μM compound; for inhibition at 10 µM: 10 μM compound; for inhibition at 50 µM: 50 μM compound
T1 construct: purchased Enzo Life Sciences
Description: (§1) The HDAC1/HDAC2/HDAC3 in vitro activities are detected by Enzo Life Sciences' HDAC1/HDAC2/HDAC3 Fluorimetric Drug Discovery Kit. The assay is based on the FLUOR DE LYS® Substrate and FLUOR DE LYS® Developer combination. The assay procedure has two steps. First, the FLUOR DE LYS® Substrate, which comprises an acetylated lysine side chain, is incubated with HDAC1/HDAC2/HDAC3, respectively. Deacetylation of the substrate sensitizes the substrate so that, in the second step, treatment with the FLUOR DE LYS® Developer produces a fluorophore. The signals of the test compounds (Compounds 1˜83; at concentrations of 2 μM, 10 μM and 50 μM) in 96-well plates are detected at 360 nm or 485 nm excitation and 460 nm or 530 nm emission with a Molecular Devices SpectraMax i3 Imaging Cytometer. The HDAC1/HDAC2/HDAC3 activities are expressed in percentage of basal control minus baseline control.

HDAC2 = biological target: T2, HDAC2 (Homo sapiens, UniProt Q92769); test: HDAC Inhibition Screening Assay (FLUOR DE LYS Fluorimetric Drug Discovery Kit), HDAC2; details: for inhibition at 2 µM: 2 μM compound; for inhibition at 10 µM: 10 μM compound; for inhibition at 50 µM: 50 μM compound
T2 construct: purchased Enzo Life Sciences
Description: as §1

HDAC3 = biological target: T3, HDAC3 (Homo sapiens, UniProt O15379); test: HDAC Inhibition Screening Assay (FLUOR DE LYS Fluorimetric Drug Discovery Kit), HDAC3; details: for inhibition at 2 µM: 2 μM compound; for inhibition at 10 µM: 10 μM compound; for inhibition at 50 µM: 50 μM compound
T3 construct: purchased Enzo Life Sciences
Description: as §1

ATX (autotaxin) = biological target: T4, ATX (autotaxin) (Homo sapiens, UniProt Q13822); test: Autotaxin Inhibition Screening Assay (choline release from LPC, LPC-CR); details: for inhibition at 4 µM: 4 μM compound; for inhibition at 20 µM: 20 μM compound; for inhibition at 50 µM: 50 μM compound
T4 construct: purchased Cayman 10803
Description: ATX (autotaxin) activity was measured by choline release from LPC in presence or absence of test compounds (Compounds 1˜83; at concentrations of 4 μM, 20 μM and 50 μM). Twenty (20) ng ATX (10803, Cayman, MI, USA) was incubated with 100 μM 14:0 LPC (855575P, Avanti, AL, USA) in a final volume of 100 μL buffer containing 50 mM Tris pH 8.0, 0.01% Triton X-100, 50 mM CaCl2, 1 unit/ml choline oxidase, 2 unit/ml horseradish peroxidase (HRP), 2 mM homovanilic acid (HVA). The relative amount of released choline was measured by HVA fluorescence in a 96-well plate. Fluorescent intensity was determined at λex/λem=320/450 nm every 60 sec for 90 min with a SpectraMax i3 (Molecular Devices, CA, USA). Data analysis was performed using GraphPad Prism (GraphPad, La Jolla CA, USA). Inhibition %=[1−(SlopeTA−SlopeBlank)/(SlopeVehicle−SlopeBlank)]×100% HDAC Inhibition Screening Assay

T3 sequence (O15379 whole entry): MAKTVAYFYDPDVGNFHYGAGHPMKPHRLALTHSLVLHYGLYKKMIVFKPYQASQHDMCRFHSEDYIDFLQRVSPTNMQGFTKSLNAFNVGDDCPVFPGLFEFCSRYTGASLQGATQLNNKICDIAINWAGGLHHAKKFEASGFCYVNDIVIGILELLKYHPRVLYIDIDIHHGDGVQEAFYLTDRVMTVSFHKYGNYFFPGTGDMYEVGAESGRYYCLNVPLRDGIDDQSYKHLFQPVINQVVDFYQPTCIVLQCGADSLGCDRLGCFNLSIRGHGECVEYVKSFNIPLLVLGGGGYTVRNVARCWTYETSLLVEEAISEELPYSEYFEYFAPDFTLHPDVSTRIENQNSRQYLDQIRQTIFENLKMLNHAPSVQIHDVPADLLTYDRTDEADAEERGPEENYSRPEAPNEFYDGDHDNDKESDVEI
T3 sequence (O75376 395-489 partner limits assumed): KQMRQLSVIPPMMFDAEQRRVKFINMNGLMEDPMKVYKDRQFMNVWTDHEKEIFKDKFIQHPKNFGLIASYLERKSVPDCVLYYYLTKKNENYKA
T1 sequence (Q13547 whole entry): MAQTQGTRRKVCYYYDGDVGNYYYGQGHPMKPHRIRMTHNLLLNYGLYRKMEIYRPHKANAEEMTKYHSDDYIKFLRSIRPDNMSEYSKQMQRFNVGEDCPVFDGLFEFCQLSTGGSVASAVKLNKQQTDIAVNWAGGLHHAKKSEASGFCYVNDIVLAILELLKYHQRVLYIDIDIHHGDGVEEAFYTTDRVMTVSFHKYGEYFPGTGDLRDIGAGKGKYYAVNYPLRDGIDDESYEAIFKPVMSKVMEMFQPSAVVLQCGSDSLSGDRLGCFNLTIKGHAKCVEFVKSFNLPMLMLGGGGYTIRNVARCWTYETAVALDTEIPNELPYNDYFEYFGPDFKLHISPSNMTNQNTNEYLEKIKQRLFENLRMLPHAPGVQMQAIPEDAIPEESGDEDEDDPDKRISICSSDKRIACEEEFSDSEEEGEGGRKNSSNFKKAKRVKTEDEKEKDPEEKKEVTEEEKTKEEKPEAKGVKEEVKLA
T2 sequence (Q92769 whole entry): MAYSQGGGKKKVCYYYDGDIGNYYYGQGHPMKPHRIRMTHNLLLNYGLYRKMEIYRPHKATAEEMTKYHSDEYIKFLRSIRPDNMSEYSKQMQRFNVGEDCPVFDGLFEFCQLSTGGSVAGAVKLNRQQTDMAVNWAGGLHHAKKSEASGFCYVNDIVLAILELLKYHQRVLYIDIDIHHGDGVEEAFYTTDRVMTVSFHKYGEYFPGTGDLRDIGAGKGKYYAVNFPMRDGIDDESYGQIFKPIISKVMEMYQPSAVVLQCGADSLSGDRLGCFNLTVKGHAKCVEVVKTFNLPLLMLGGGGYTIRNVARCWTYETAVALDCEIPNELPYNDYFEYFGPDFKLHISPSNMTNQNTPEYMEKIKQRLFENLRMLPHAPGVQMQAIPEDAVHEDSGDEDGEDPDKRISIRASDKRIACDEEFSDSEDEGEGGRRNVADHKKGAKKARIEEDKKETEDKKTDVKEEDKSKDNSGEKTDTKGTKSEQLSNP

inhibition at 2 µM (HDAC1) [%]	inhibition at 10 µM (HDAC1) [%]	inhibition at 50 µM (HDAC1) [%]	inhibition at 2 µM (HDAC2) [%]	inhibition at 10 µM (HDAC2) [%]	inhibition at 50 µM (HDAC2) [%]	inhibition at 2 µM (HDAC3) [%]	inhibition at 10 µM (HDAC3) [%]	inhibition at 50 µM (HDAC3) [%]	inhibition at 4 µM (ATX (autotaxin)) [%]	inhibition at 20 µM (ATX (autotaxin)) [%]	inhibition at 50 µM (ATX (autotaxin)) [%]	SMILES
> 80	> 80	> 80	> 80	> 80	> 80	> 80	> 80	> 80	< 50	< 50	< 50	O=C(CCCCCCC(=O)Nc1ccc2c(c1)CCCC2=O)NO [Compound 1, N^1-hydroxy-N^8-(5-oxo-5,6,7,8-tetrahydronaphthalen-2-yl)octanediamide]
> 80	> 80	> 80	> 80	> 80	> 80	> 80	> 80	> 80	< 50	< 50	< 50	O=C(CCCCCCC(=O)Nc1ccc2c(c1)CCCC2O)NO (stereo not drawn) [Compound 2, N^1-hydroxy-N^8-(5-hydroxy-5,6,7,8-tetrahydronaphthalen-2-yl)octanediamide]
> 80	> 80	> 80	> 80	> 80	> 80	> 80	> 80	> 80	< 50	< 50	< 50	O=C(CCCCCCC(=O)Nc1ccc2c(c1)CCC/C2=N\O)NO [Compound 3, (E)-N1-hydroxy-N8-(5-(hydroxyimino)-5,6,7,8-tetrahydronaphthalen-2-yl)octanediamide]
50 to 80	> 80	> 80	50 to 80	> 80	> 80	< 50	50 to 80	> 80	> 80	> 80	> 80	O=C(CCCCCCC(=O)Nc1ccc2c(c1)CC/C(=C\c1cc(C(F)(F)F)cc(C(F)(F)F)c1)C2=O)NO [Compound 4]
< 50	< 50	< 50	< 50	< 50	< 50	< 50	< 50	< 50	50 to 80	50 to 80	50 to 80	Nc1cc(F)ccc1NC(=O)CCCCCCC(=O)Nc1ccc2c(c1)CC/C(=C\c1cc(C(F)(F)F)cc(C(F)(F)F)c1)C2=O [Compound 5, (E)-N1-(2-amino-4-fluorophenyl)-N8-(6-(3,5-bis(trifluoromethyl)benzylidene)-5-oxo-5,6,7,8-tetrahydronaphthalen-2-yl)octanediamide]
< 50	< 50	< 50	< 50	< 50	< 50	< 50	< 50	< 50	50 to 80	50 to 80	50 to 80	Nc1cc(F)ccc1NC(=O)/C=C/c1ccc2c(c1)CC/C(=C\c1cc(C(F)(F)F)cc(C(F)(F)F)c1)C2=O [Compound 6, (E)-N-(2-amino-4-fluorophenyl)-3-(6-((E)-3,5-bis(trifluoromethyl)benzylidene)-5-oxo-5,6,7,8-tetrahydronaphthalen-2-yl)acrylamide]
< 50	< 50	50 to 80	< 50	< 50	50 to 80	< 50	< 50	50 to 80	< 50	50 to 80	50 to 80	O=C(/C=C/c1ccc2c(c1)CC/C(=C\c1cc(C(F)(F)F)cc(C(F)(F)F)c1)C2=O)NO [Compound 7, (E)-3-(6-((E)-3,5-bis(trifluoromethyl)benzylidene)-5-oxo-5,6,7,8-tetrahydronaphthalen-2-yl)-N-hydroxyacrylamide]
50 to 80	> 80	> 80	> 80	> 80	> 80	< 50	> 80	> 80	> 80	> 80	> 80	O=C(/C=C/c1ccc2c(c1)CC/C(=C\c1cc(C(F)(F)F)cc(C(F)(F)F)c1)C2=O)NCCCCCC(=O)NO [Compound 8, 6-((E)-3-(6-((E)-3,5-bis(trifluoromethyl)benzylidene)-5-oxo-5,6,7,8-tetrahydronaphthalen-2-yl)acrylamido)-N-hydroxyhexanamide]
< 50	< 50	< 50	< 50	< 50	< 50	< 50	< 50	< 50	< 50	< 50	< 50	Nc1cc(F)ccc1NC(=O)CCCCCCC(=O)Nc1ccc2c(c1)CCC(Cc1cc(C(F)(F)F)cc(C(F)(F)F)c1)C2=O (stereo not drawn) [Compound 9, N1-(2-amino-4-fluorophenyl)-N8-(6-(3,5-bis(trifluoromethyl)benzyl)-5-oxo-5,6,7,8-tetrahydronaphthalen-2-yl)octanediamide]
< 50	50 to 80	> 80	< 50	> 80	> 80	< 50	50 to 80	> 80	> 80	> 80	> 80	O=C(CCCCCCC(=O)Nc1ccc2c(c1)CCC(Cc1cc(C(F)(F)F)cc(C(F)(F)F)c1)C2=O)NO (stereo not drawn) [Compound 10, N1-(6-(3,5-bis(trifluoromethyl)benzyl)-5-oxo-5,6,7,8-tetrahydronaphthalen-2-yl)-N8-hydroxyoctanediamide]
< 50	< 50	< 50	< 50	< 50	< 50	< 50	< 50	< 50	> 80	> 80	> 80	Nc1cc(F)ccc1NC(=O)CCCCCC(=O)Nc1ccc2c(c1)CC/C(=C\c1cc(C(F)(F)F)cc(C(F)(F)F)c1)C2=O [Compound 11, (E)-N1-(2-amino-4-fluorophenyl)-N7-(6-(3,5-bis(trifluoromethyl)benzylidene)-5-oxo-5,6,7,8-tetrahydronaphthalen-2-yl)heptanediamide]
< 50	50 to 80	> 80	50 to 80	> 80	> 80	50 to 80	> 80	> 80	> 80	> 80	> 80	O=C(CCCCCC(=O)Nc1ccc2c(c1)CC/C(=C\c1cc(C(F)(F)F)cc(C(F)(F)F)c1)C2=O)NO [Compound 12, (E)-N1-(6-(3,5-bis(trifluoromethyl)benzylidene)-5-oxo-5,6,7,8-tetrahydronaphthalen-2-yl)-N7-hydroxyheptanediamide]
< 50	< 50	< 50	< 50	< 50	< 50	< 50	< 50	< 50	50 to 80	50 to 80	50 to 80	Nc1cc(F)ccc1NC(=O)CCCCC(=O)Nc1ccc2c(c1)CC/C(=C\c1cc(C(F)(F)F)cc(C(F)(F)F)c1)C2=O [Compound 13, (E)-N1-(2-amino-4-fluorophenyl)-N6-(6-(3,5-bis(trifluoromethyl)benzylidene)-5-oxo-5,6,7,8-tetrahydronaphthalen-2-yl)adipamide]
